“Also recorded” adds a separate entry of the source.
Assays:
Type in all cases: physicochemical
[1] = Light stability test (25° C., 4500 Lux, 30 days; HPLC purity and XRPD); conditions: light conditions
Protocol: (§1) Light stability: samples of a raw drug of Elagolix sodium and an eutectic form A formed by Elagolix and pyrimethamine (prepared in Comparative example 1 and Example 1, respectively) were taken and separately placed at 25° C. under light conditions of 4500 Lux for 30 days, sampling was conducted at fixed time points on day 5, day 10 and day 30, respectively to determine the XRPD pattern of the eutectic form A, and the content of Elagolix in the raw drug of Elagolix sodium and the eutectic form A, and the determined XRPD pattern of the eutectic form A, and the determined content of Elagolix in the raw drug of Elagolix sodium and the eutectic form A were compared with those on day 0.
(§2) The specific stability test method can refer to the method in Appendix XIC of Part II of Chinese Pharmacopoeia (2015 Edition); and the purity was detected by an HPLC method, and can be determined by an external standard method with reference to the method in Appendix VD of Chinese Pharmacopoeia (2015 Edition) by using the sample on day 0 as a control.
(§3) Operating Conditions for HPLC
• Instrument: high performance liquid chromatograph (model: Agilent Technologies 1260) • Chromatographic column: shiseido CAPCELL PAK C18 column (5 μm, 250 mm×4.6 mm) Mobile Phase Composition and Gradient Elution Procedure: […]

[2] = High temperature stability test (60° C., 30 days; HPLC purity and XRPD)
Protocol: as §1, with “High temperature” for “Light”, “60°” for “25°”, “C.” for “C. under light conditions of 4500 Lux”, “of” for “of Elagolix in”
as §2, §3
(§4) • Instrument: high performance liquid chromatograph (model: Agilent Technologies 1260) • Chromatographic column: shiseido CAPCELL PAK C18 column (5 μm, 250 mm×4.6 mm) Mobile Phase Composition and Gradient Elution Procedure:
(§5) • Detection wavelength: 254 nm • Flow rate: 1 mL/min • Injection volume: 10 μL • Column temperature: 30° C.

[3] = High humidity stability test (25° C., 92.5% RH, 30 days; HPLC purity and XRPD)
Protocol: as §1, with “High humidity” for “Light”, “at 92.5% RH” for “under light conditions of 4500 Lux”, “of” for “of Elagolix in”
as §2, §3, §4, §5

COc1cccc(-c2c(C)n(Cc3c(F)cccc3C(F)(F)F)c(=O)n(C[C@H](NCCCC(=O)O)c3ccccc3)c2=O)c1F [Elagolix sodium]
not good; also recorded: unstable: Light stability (in words) [1] | High temperature stability (in words) [2] | High humidity stability (in words) [3]

Reference: patent US12268689B2, “Eutectic form A of Elagolix and pyrimethamine, preparation method therefor and use thereof” (Shenzhen Rentai Pharmatech Ltd., priority 2019, dated 2025)
